Legend:
Assay in all cases: relative viability (nuclei count vs DMSO), 5 days (fraction); higher = more cells survive
CUDC-101 + Olaparib = compound: C#Cc1cccc(Nc2ncnc3cc(OC)c(OCCCCCCC(=O)NO)cc23)c1 [CUDC-101] + O=C(c1cc(Cc2n[nH]c(=O)c3ccccc23)ccc1F)N1CCN(C(=O)C2CC2)CC1 [Olaparib] (partner 8 µM)
Summary of the method: (§1)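 Dosing by pin tool came one day after lung cancer cell lines were seeded in 1536-well plates, using either one drug or a fixed anchor-drug dose plus five library-drug doses (not always all listed) in √10 steps. After 5 days, nuclei were counted on 4× images. Relative viability is treated-well nuclei count divided by vehicle-well nuclei count, and values are medians of duplicate plates.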

NVP-TAE684 + Pictilisib = compound: COc1cc(N2CCC(N3CCN(C)CC3)CC2)ccc1Nc1ncc(Cl)c(Nc2ccccc2S(=O)(=O)C(C)C)n1 [NVP-TAE684] + CS(=O)(=O)N1CCN(Cc2cc3nc(-c4cccc5[nH]ncc45)nc(N4CCOCC4)c3s2)CC1 [Pictilisib] (partner 1 µM)
Summary of the method: as §1

NVP-TAE684 + AZD7762 = compound: COc1cc(N2CCC(N3CCN(C)CC3)CC2)ccc1Nc1ncc(Cl)c(Nc2ccccc2S(=O)(=O)C(C)C)n1 [NVP-TAE684] + NC(=O)Nc1cc(-c2cccc(F)c2)sc1C(=O)N[C@H]1CCCNC1 [AZD7762] (partner 0.2 µM)
Summary of the method: as §1

Vandetanib + Olaparib = compound: COc1cc2/c(=N/c3ccc(Br)cc3F)nc[nH]c2cc1OCC1CCN(C)CC1 [Vandetanib] + O=C(c1cc(Cc2n[nH]c(=O)c3ccccc23)ccc1F)N1CCN(C(=O)C2CC2)CC1 [Olaparib] (partner 8 µM)
Summary of the method: as §1

Cell Line	relative viability (CUDC-101 + Olaparib; first compound 0.01 µM)	relative viability (CUDC-101 + Olaparib; first compound 0.03162 µM)	relative viability (CUDC-101 + Olaparib; first compound 0.1 µM)	relative viability (CUDC-101 + Olaparib; first compound 0.3162 µM)	relative viability (CUDC-101 + Olaparib; first compound 1 µM)	relative viability (NVP-TAE684 + Pictilisib; first compound 0.2 µM)	relative viability (NVP-TAE684 + Pictilisib; first compound 0.6325 µM)	relative viability (NVP-TAE684 + Pictilisib; first compound 2 µM)	relative viability (NVP-TAE684 + AZD7762; first compound 0.2 µM)	relative viability (NVP-TAE684 + AZD7762; first compound 0.6325 µM)	relative viability (NVP-TAE684 + AZD7762; first compound 2 µM)	relative viability (Vandetanib + Olaparib; first compound 0.02 µM)	relative viability (Vandetanib + Olaparib; first compound 0.06325 µM)	relative viability (Vandetanib + Olaparib; first compound 0.2 µM)	relative viability (Vandetanib + Olaparib; first compound 0.6325 µM)	relative viability (Vandetanib + Olaparib; first compound 2 µM)
NCI-H2405	0.901	0.844	0.861	0.908	0.817	0.522	0.348	0.284	0.767	0.598	0.31	0.835	0.816	0.895	0.948	0.837
NCI-H2087	0.698	0.614	0.522	0.578	0.488	0.942	0.886	0.858	1.47	1.37	1.22	0.497	0.567	0.644	0.613	0.639
NCI-H2023	0.499	0.448	0.453	0.486	0.387	0.244	0.137	0.109				0.464	0.473	0.484	0.466	0.479
NCI-H3122	0.61	0.647	0.625	0.598	0.558	0.211	0.181	0.202	0.22	0.184	0.127	0.617	0.576	0.232	0.567	0.621
ChaGo-K-1	0.41	0.444	0.42	0.377	0.293	1.14	0.424	0.776	1.02	0.836		0.415	0.427	0.161	0.411	0.438
NCI-H2347	0.677	0.681	0.626	0.686	0.479	0.572	0.482	0.597	0.723	0.613	0.628	0.538	0.525	0.596	0.692	0.553
NCI-H460	0.458	0.42	0.428	0.465	0.349	0.333	0.362	0.295	0.767	0.568	0.591	0.37	0.399	0.336	0.45	0.462
HCC-827	0.718	0.302	0.157	0.221	0.123	1.14	0.84	0.968	0.193	0.177	0.18	0.629	0.653	0.627	0.309	0.152
HOP-62	0.31	0.465	0.359	0.29	0.477	0.815	0.75	0.754	0.898	0.611	0.525	0.51	0.397	0.265	0.373	0.447
NCI-H1792	0.495	0.379	0.381	0.407	0.278	0.227	0.256	0.232	0.678	0.733	0.394	0.425	0.442	0.469	0.66	0.409
HCC-15	0.684	0.726	0.652	0.665	0.499	0.718	0.738	0.737	1.11	1.36	0.806	0.72	0.677	0.782	0.713	0.722
NCI-H1755	0.873	0.933	0.904	0.853	0.753	0.5	0.414	0.408	0.434	0.427	0.328	0.917	0.863	0.848	0.822	0.863
NCI-H23	0.271	0.373	0.323	0.302	0.248	0.518	0.422	0.377	0.24	0.209	0.151	0.346	0.275	0.328	0.343	0.335
BEN	0.91	0.853	1.11	0.785	0.691	0.467	0.472	0.527	0.794	0.615	0.6	1.21	1.02	1.03	1.04	1.08
NCI-H1651	0.194	0.209	0.192	0.2	0.182	0.366	0.629	0.402	0.423	0.48	0.401	0.176	0.179	0.17	0.165	0.19
NCI-H2126	0.875	0.919	0.905	0.968	0.787	0.491	0.501	0.428	1.03	1.01	0.684	0.883	0.888	0.818	0.923	0.88
EKVX	1.06	0.737	0.71	0.961	0.624	0.437	0.354	0.319	0.634	0.677	0.375	0.854	0.761	0.904	0.813	0.563
NCI-H1650	0.926	0.667	0.744	0.867	0.578	0.564	0.405	0.161				0.753	0.827	0.756	0.792	0.572
SK-LU-1	0.473	0.503	0.421	0.487	0.434	0.501	0.524	0.444				0.496	0.313	0.54	0.437	0.597

Cell Line	relative viability (CUDC-101 + Olaparib; first compound 0.01 µM)	relative viability (CUDC-101 + Olaparib; first compound 0.03162 µM)	relative viability (CUDC-101 + Olaparib; first compound 0.1 µM)	relative viability (CUDC-101 + Olaparib; first compound 0.3162 µM)	relative viability (CUDC-101 + Olaparib; first compound 1 µM)	relative viability (NVP-TAE684 + Pictilisib; first compound 0.2 µM)	relative viability (NVP-TAE684 + Pictilisib; first compound 0.6325 µM)	relative viability (NVP-TAE684 + Pictilisib; first compound 2 µM)	relative viability (NVP-TAE684 + AZD7762; first compound 0.2 µM)	relative viability (NVP-TAE684 + AZD7762; first compound 0.6325 µM)	relative viability (NVP-TAE684 + AZD7762; first compound 2 µM)	relative viability (Vandetanib + Olaparib; first compound 0.02 µM)	relative viability (Vandetanib + Olaparib; first compound 0.06325 µM)	relative viability (Vandetanib + Olaparib; first compound 0.2 µM)	relative viability (Vandetanib + Olaparib; first compound 0.6325 µM)	relative viability (Vandetanib + Olaparib; first compound 2 µM)
NCI-H2009	0.698	0.694	0.697	0.615	0.646	0.949	0.68	0.514				0.649	0.668	0.658	0.688	0.716
EBC-1	0.744	0.674	0.683	0.666	0.26	0.364	0.348	0.212				0.698	0.603	0.69	0.782	0.693
NCI-H2342	0.425	0.487	0.44	0.513	0.432				0.463	0.437	0.349	0.482	0.41	0.477	0.415	0.438
NCI-H661	0.795	0.69	0.632	0.611	0.437	0.449	0.426	0.429				0.793	0.696	0.726	0.759	0.735
SW 900	0.887	0.811	0.841	0.686	0.628				0.526	0.476	0.445	0.804	0.784		0.88	0.815
IA-LM	0.768	0.871	0.74	0.86	0.46	0.253	0.176	0.202				0.969	0.874	0.864	0.867	0.849
SK-MES-1	0.697	0.775	0.727	0.658	0.512	0.475	0.393	0.309				0.71	0.676	0.708	0.606	0.424
COR-L 105	0.703	0.74	0.759	0.697	0.77	0.307	0.281	0.264				0.639	0.606	0.756	0.67	0.811
NCI-H522	0.674	0.624	0.7	0.693	0.529				0.91	0.938	0.744	0.604	0.703	0.689	0.743	0.605
NCI-H1299	0.964	0.953	1	0.98	0.883	0.601	0.707	0.364				0.983	0.928	0.924	0.933	0.981
NCI-H2228	0.756	0.783	1.03	0.659	0.653	0.281	0.167	0.223				0.65	0.566	0.719	0.661	0.559
SW 1573	0.634	0.477	0.587	0.603	0.349	0.571	0.471	0.39				0.434	0.416	0.393	0.521	0.489
COR-L23	0.402	0.374	0.331	0.266	0.294	0.51	0.442	0.173				0.327	0.343	0.379	0.379	0.347
NCI-H1563						0.597	0.63	0.495								
NCI-H1648	1.19	0.762	0.665	0.748	0.294				0.677	0.56	0.399	0.591	0.771	0.91	1.15	0.761
NCI-H520	0.298	0.325	0.305	0.298	0.194	0.337	0.3	0.228				0.299	0.343	0.379	0.35	0.324
A549	0.415	0.24	0.355	0.417	0.286	0.534	0.407	0.108				0.234	0.368	0.349	0.291	0.356
Calu-6	0.545	0.503	0.522	0.484	0.332	0.954	0.741	0.444				0.526	0.552	0.579	0.572	0.563

— the supplement of paper PMC10307832
